This passage reports EC50 and IC50 results from patent US20120225061A1, “TETRASUBSTITUTED CYCLOHEXYL COMPOUNDS AS KINASE INHIBITORS” (priority 2011, published 2012).

The subject of assay [1] is KMS11 (human myeloma cell line). The experiment in a line: Cell proliferation assay (CellTiter-Glo) in KMS11 cells. It counts as cell-based. To be noted: KMS-11, 72 h, Table 5, 3 days, read-out: KMS11-luc EC50. The gist of the method:
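KMS11 cells at 2000 per well in IMDM/10% FBS were exposed to compound for 3 days. Viability was read by CellTiter-Glo luminescence.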

In the next assay the target is Pim1 kinase (Homo sapiens, UniProt P11309). The experiment in a line: Pim1 AlphaScreen assay (high ATP).
Chain of Pim1 kinase (P11309 whole entry): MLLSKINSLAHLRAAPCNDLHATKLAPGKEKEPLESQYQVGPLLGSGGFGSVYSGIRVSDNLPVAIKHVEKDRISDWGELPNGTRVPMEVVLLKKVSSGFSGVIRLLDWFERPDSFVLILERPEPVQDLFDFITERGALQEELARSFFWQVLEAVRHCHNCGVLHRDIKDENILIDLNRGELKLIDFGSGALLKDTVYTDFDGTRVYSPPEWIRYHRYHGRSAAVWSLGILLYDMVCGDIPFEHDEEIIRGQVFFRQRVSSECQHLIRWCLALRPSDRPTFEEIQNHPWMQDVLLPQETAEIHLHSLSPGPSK
In another assay the target is Pim2 kinase (Homo sapiens, UniProt Q9P1W9). The experiment in a line: Pim2 AlphaScreen assay (high ATP).
Chain of Pim2 kinase (Q9P1W9 whole entry): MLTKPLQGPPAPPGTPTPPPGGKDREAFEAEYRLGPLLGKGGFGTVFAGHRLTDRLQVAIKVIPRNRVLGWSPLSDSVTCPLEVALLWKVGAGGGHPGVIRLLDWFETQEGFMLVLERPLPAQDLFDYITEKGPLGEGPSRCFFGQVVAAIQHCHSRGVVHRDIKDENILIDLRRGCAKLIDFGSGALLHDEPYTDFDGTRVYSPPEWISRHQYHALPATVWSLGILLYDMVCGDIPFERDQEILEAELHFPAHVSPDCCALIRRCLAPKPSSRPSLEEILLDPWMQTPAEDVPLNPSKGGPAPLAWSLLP
Another assay has as its target Pim3 kinase (Homo sapiens, UniProt Q86V86). The experiment in a line: Pim3 AlphaScreen assay (high ATP).

Procedure for Pim3 kinase: The activity of Pim 1, Pim 2, & Pim 3 is measured using a homogeneous bead based system quantifying the amount of phosphorylated peptide substrate resulting from kinase-catalyzed phosphoryl transfer to a peptide substrate. Compounds to be tested are dissolved in 100% DMSO and directly distributed to a white 384-well plate at 0.25 μl per well. […] This is followed by the addition of 5 μl/well of Pim 1, Pim 2 or Pim 3 kinase in assay buffer (concentrations described below). Final assay concentrations (described below) are in 2.5% DMSO. The reactions are performed for ˜2 hours, then stopped by the addition of 10 μl of 0.75 μg/ml anti-phospho Ser/Thr antibody (Cell Signaling), 10 μg/ml Protein A AlphaScreen beads (Perkin Elmer), and 10 μg/ml streptavidin coated AlphaScreen beads in stop/detection buffer (50 mM EDTA, 95 mM Tris, pH=7.5, 0.01% Tween-20). The stopped reactions are incubated overnight in the dark. The phosphorylated peptide is detected via an oxygen anion initiated chemiluminescence/fluorescence cascade using the Envision plate reader (Perkin Elmer).

In the case of `C[C@H]1C[C@@H](c2ccncc2NC(=O)c2nc(-c3c(F)cc(C4(O)CCOCC4)cc3F)sc2N)C[C@@H](N)[C@]1(C)O` [Example 83, 5-amino-N-(4-((1R,3R,4R,5S)-3-amino-4-hydroxy-4,5-dimethylcyclohexyl)pyridin-3-yl)-2-(2,6-difluoro-4-(4-hydroxytetrahydro-2H-pyran-4-yl)phenyl)thiazole-4-carboxamide], in assay [1], the concentration giving a half-maximal response (EC50) was determined as 9300 nM. For the same compound, the concentration for half-maximal inhibition (IC50) on Pim1 kinase turned out to be 0.03 nM; against Pim2 kinase, 3.71 nM; against Pim3 kinase, 0.71 nM.

Consider `C[C@H]1C[C@@H](c2ccncc2NC(=O)c2nc(-c3c(F)cc(C4(F)CCOCC4)cc3F)sc2N)C[C@@H](N)[C@]1(C)O` [Example 84, 5-amino-N-(4-((1R,3R,4R,5S)-3-amino-4-hydroxy-4,5-dimethylcyclohexyl)pyridin-3-yl)-2-(2,6-difluoro-4-(4-fluorotetrahydro-2H-pyran-4-yl)phenyl)thiazole-4-carboxamide], for which the concentration giving a half-maximal response (EC50) in assay [1] worked out at 343 nM. Also, the IC50 was determined as 0.01 nM against Pim1 kinase, 2.8 nM against Pim2 kinase and 0.48 nM on Pim3 kinase.

In the case of `C[C@H]1C[C@@H](c2ccncc2NC(=O)c2nc(-c3c(F)cc(C4CCOCC4)cc3F)sc2N)C[C@@H](N)[C@]1(C)O` [Example 85, 5-amino-N-(4-((1R,3R,4R,5S)-3-amino-4-hydroxy-4,5-dimethylcyclohexyl)pyridin-3-yl)-2-(2,6-difluoro-4-(tetrahydro-2H-pyran-4-yl)phenyl)thiazole-4-carboxamide], in assay [1], the EC50 was 706 nM. In addition, the IC50 against Pim1 kinase turned out to be 0.01 nM; against Pim2 kinase, 1.99 nM; on Pim3 kinase, 0.32 nM.

For `C[C@H]1C[C@@H](c2ccncc2NC(=O)c2ccc(F)c(-c3c(F)cc(C(C)(C)C#N)cc3F)n2)C[C@@H](N)[C@]1(C)O` [Example 86, N-(4-((1R,3R,4R,5S)-3-amino-4-hydroxy-4,5-dimethylcyclohexyl)pyridin-3-yl)-6-(4-(2-cyanopropan-2-yl)-2,6-difluorophenyl)-5-fluoropicolinamide], the concentration giving a half-maximal response (EC50) in assay [1] was 66 nM. Moreover, the results for the IC50 at Pim1 kinase, at Pim2 kinase and against Pim3 kinase were 0.03 nM, 2.74 nM and 2.46 nM, respectively.

As to `C[C@H]1C[C@@H](c2ccncc2NC(=O)c2ccc(F)c(-c3c(F)cc(N4CCOCC4)cc3F)n2)C[C@@H](N)[C@]1(C)O` [Example 87, N-(4-((1R,3R,4R,5S)-3-amino-4-hydroxy-4,5-dimethylcyclohexyl)pyridin-3-yl)-6-(2,6-difluoro-4-morpholinophenyl)-5-fluoropicolinamide], in assay [1], the concentration for a half-maximal effect (EC50) was determined as 57 nM. Besides, the IC50 was 0.01 nM on Pim1 kinase, 1.91 nM on Pim2 kinase and 0.41 nM on Pim3 kinase.

For the compound `C[C@H]1C[C@@H](c2ccncc2NC(=O)c2ccc(F)c(-c3c(F)cc(C4(C#N)CCOCC4)cc3F)n2)C[C@@H](N)[C@]1(C)O` [Example 88, N-(4-((1R,3R,4R,5S)-3-amino-4-hydroxy-4,5-dimethylcyclohexyl)pyridin-3-yl)-6-(4-(4-cyanotetrahydro-2H-pyran-4-yl)-2,6-difluorophenyl)-5-fluoropicolinamide], the EC50 in assay [1] was 101 nM. The IC50 against Pim1 kinase was 0.03 nM; against Pim2 kinase, 5.8 nM; against Pim3 kinase it was 5.59 nM.

For the compound `C[C@H]1C[C@@H](c2ccncc2NC(=O)c2ccc(F)c(-c3c(F)cc(O[C@H]4CCCOC4)cc3F)n2)C[C@@H](N)[C@]1(C)O` [Example 89, N-(4-((1R,3R,4R,5S)-3-amino-4-hydroxy-4,5-dimethylcyclohexyl)pyridin-3-yl)-6-(2,6-difluoro-4-((S)-tetrahydro-2H-pyran-3-yloxy)phenyl)-5-fluoropicolinamide], the EC50 in assay [1] stood at 22 nM. Moreover, the concentration for half-maximal inhibition (IC50) on Pim1 kinase amounted to 0.02 nM; against Pim2 kinase it was 1.47 nM; against Pim3 kinase it was 0.35 nM.

On to `C[C@H]1C[C@@H](c2ccncc2NC(=O)c2ccc(F)c(-c3c(F)cc(OC4CCOCC4)cc3F)n2)C[C@@H](O)[C@]1(C)O` [Example 90, 6-(2,6-difluoro-4-(tetrahydro-2H-pyran-4-yloxy)phenyl)-N-(4-((1R,3R,4R,5S)-3,4-dihydroxy-4,5-dimethylcyclohexyl)pyridin-3-yl)-5-fluoropicolinamide], for which the half-maximal effective concentration (EC50) in assay [1] came to 557 nM. Further, the IC50 against Pim1 kinase is 0.47 nM; at Pim2 kinase, 215 nM; against Pim3 kinase, 64.4 nM.

In the case of `CC(C)OCc1cc(F)c(-c2nc(C(=O)Nc3cnccc3[C@H]3C[C@@H](N)[C@](C)(O)[C@@H](C)C3)ccc2F)c(F)c1` [Example 91, N-(4-((1R,3R,4R,5S)-3-amino-4-hydroxy-4,5-dimethylcyclohexyl)pyridin-3-yl)-6-(2,6-difluoro-4-(isopropoxymethyl)phenyl)-5-fluoropicolinamide], the EC50 in assay [1] turned out to be 102 nM. In addition, the concentration for half-maximal inhibition (IC50) was 0.07 nM against Pim1 kinase, 2.4 nM on Pim2 kinase and 1.62 nM at Pim3 kinase.

For `C[C@H]1C[C@@H](c2ccncc2NC(=O)c2ccc(F)c(-c3c(F)cc(COC4CCOCC4)cc3F)n2)C[C@@H](N)[C@]1(C)O` [Example 92, N-(4-((1R,3R,4R,5S)-3-amino-4-hydroxy-4,5-dimethylcyclohexyl)pyridin-3-yl)-6-(2,6-difluoro-4-((tetrahydro-2H-pyran-4-yloxy)methyl)phenyl)-5-fluoropicolinamide], in assay [1], the half-maximal effective concentration (EC50) was 91 nM. For the same compound, the IC50 was found to be 0.09 nM at Pim1 kinase, 3.89 nM at Pim2 kinase and 2.2 nM against Pim3 kinase.

In the case of `C[C@H]1C[C@@H](c2ccncc2NC(=O)c2ccc(F)c(-c3c(F)cc(OCC(=O)N(C)C)cc3F)n2)C[C@@H](N)[C@]1(C)O` [Example 93, N-(4-((1R,3R,4R,5S)-3-amino-4-hydroxy-4,5-dimethylcyclohexyl)pyridin-3-yl)-6-(4-(2-(dimethylamino)-2-oxoethoxy)-2,6-difluorophenyl)-5-fluoropicolinamide], the concentration for a half-maximal effect (EC50) in assay [1] stood at 1400 nM. Moreover, the figures for the concentration for half-maximal inhibition (IC50) against Pim1 kinase, against Pim2 kinase and against Pim3 kinase were 0.09 nM, 8.44 nM and 1.23 nM, respectively.

Turning to `Cc1noc(C)c1-c1cc(F)c(-c2nc(C(=O)Nc3cnccc3[C@H]3C[C@@H](N)[C@](C)(O)[C@@H](C)C3)ccc2F)c(F)c1` [Example 94, N-(4-((1R,3R,4R,5S)-3-amino-4-hydroxy-4,5-dimethylcyclohexyl)pyridin-3-yl)-6-(4-(3,5-dimethylisoxazol-4-yl)-2,6-difluorophenyl)-5-fluoropicolinamide], the EC50 in assay [1] is 3230 nM. For the same compound, the half-inhibitory concentration (IC50) on Pim1 kinase is 0.3 nM; on Pim2 kinase, 114 nM; against Pim3 kinase it was 47.8 nM.

For `C[C@H]1C[C@@H](c2ccncc2NC(=O)c2ccc(F)c(-c3c(F)cc(C4(O)CCC4)cc3F)n2)C[C@@H](N)[C@]1(C)O` [Example 95, N-(4-((1R,3R,4R,5S)-3-amino-4-hydroxy-4,5-dimethylcyclohexyl)pyridin-3-yl)-6-(2,6-difluoro-4-(1-hydroxycyclobutyl)phenyl)-5-fluoropicolinamide], the EC50 in assay [1] worked out at 174 nM. The half-inhibitory concentration (IC50) came to 0.04 nM against Pim1 kinase, 3.85 nM on Pim2 kinase and 2.37 nM on Pim3 kinase.

Regarding `C[C@@H]1C[C@H](c2ccncc2NC(=O)c2ccc(F)c(-c3c(F)cc(OC4CCOCC4)cc3F)n2)C[C@H](O)[C@@]1(C)O` [Example 96, 6-(2,6-difluoro-4-(tetrahydro-2H-pyran-4-yloxy)phenyl)-N-(4-((1S,3S,4S,5R)-3,4-dihydroxy-4,5-dimethylcyclohexyl)pyridin-3-yl)-5-fluoropicolinamide], in assay [1], the EC50 is > 10000 nM. The values for the half-maximal inhibitory concentration (IC50) against Pim1 kinase, against Pim2 kinase and on Pim3 kinase were 18.7 nM, 8720 nM and 2620 nM, respectively.

Consider `C[C@H]1C[C@@H](c2ccncc2NC(=O)c2nc(-c3c(F)cc(C(C)(C)O)cc3F)c(F)cc2N)C[C@@H](O)[C@]1(C)O` [Example 97, 3-amino-6-(2,6-difluoro-4-(2-hydroxypropan-2-yl)phenyl)-N-(4-((1R,3R,4R,5S)-3,4-dihydroxy-4,5-dimethylcyclohexyl)pyridin-3-yl)-5-fluoropicolinamide], for which the concentration for a half-maximal effect (EC50) in assay [1] was 405 nM. For the same compound, the half-maximal inhibitory concentration (IC50) is 0.24 nM on Pim1 kinase, 28.9 nM on Pim2 kinase and 8.24 nM on Pim3 kinase.

Take `COCCOc1cc(F)c(-c2nc(C(=O)Nc3cnccc3[C@H]3C[C@@H](O)[C@](C)(O)[C@@H](C)C3)c(N)cc2F)c(F)c1` [Example 98, 3-amino-6-(2,6-difluoro-4-(2-methoxyethoxy)phenyl)-N-(4-((1R,3R,4R,5S)-3,4-dihydroxy-4,5-dimethylcyclohexyl)pyridin-3-yl)-5-fluoropicolinamide]: in assay [1], the concentration for a half-maximal effect (EC50) was 427 nM. In addition, the IC50 came out at 0.83 nM against Pim1 kinase, 133 nM against Pim2 kinase and 40.2 nM on Pim3 kinase.

Consider `CC(C)Oc1cc(F)c(-c2nc(C(=O)Nc3cnccc3[C@H]3C[C@@H](O)[C@](C)(O)[C@@H](C)C3)c(N)cc2F)c(F)c1` [Example 99, 3-amino-6-(2,6-difluoro-4-isopropoxyphenyl)-N-(4-((1R,3R,4R,5S)-3,4-dihydroxy-4,5-dimethylcyclohexyl)pyridin-3-yl)-5-fluoropicolinamide], for which the half-maximal effective concentration (EC50) in assay [1] was 1150 nM. In addition, the IC50 against Pim1 kinase is 0.96 nM; against Pim2 kinase, 107 nM; against Pim3 kinase it was 45.5 nM.

`COCCCOc1cc(F)c(-c2nc(C(=O)Nc3cnccc3[C@H]3C[C@@H](N)[C@](C)(O)[C@@H](C)C3)ccc2F)c(F)c1` [Example 100, N-(4-((1R,3R,4R,5S)-3-amino-4-hydroxy-4,5-dimethylcyclohexyl)pyridin-3-yl)-6-(2,6-difluoro-4-(3-methoxypropoxy)phenyl)-5-fluoropicolinamide]: the 50% effective concentration (EC50) in assay [1] was 340 nM. Further, the IC50 against Pim1 kinase was found to be 0.04 nM; against Pim2 kinase, 2.15 nM; at Pim3 kinase, 0.69 nM.
